The text below walks through data of ChEMBL document CHEMBL1201862, “PubChem BioAssay data set” (2004).

The target in data set [1] is Steroidogenic factor 1 (Homo sapiens, UniProt Q13285). Put plainly: Counterscreen for inverse agonists of the liver receptor homolog-1 (LRH-1; NR5A2): Luminescence-based cell-based high throughput dose response assay to identify inverse agonists of the Steroidogenic Factor 1 Nuclear Receptor (SF1; NR5A1). In kind it is functional. On the technique in general: A counterscreen serves to expose hits that act by an unwanted route or on another target.
Steroidogenic factor 1, sequence (Q13285 whole entry): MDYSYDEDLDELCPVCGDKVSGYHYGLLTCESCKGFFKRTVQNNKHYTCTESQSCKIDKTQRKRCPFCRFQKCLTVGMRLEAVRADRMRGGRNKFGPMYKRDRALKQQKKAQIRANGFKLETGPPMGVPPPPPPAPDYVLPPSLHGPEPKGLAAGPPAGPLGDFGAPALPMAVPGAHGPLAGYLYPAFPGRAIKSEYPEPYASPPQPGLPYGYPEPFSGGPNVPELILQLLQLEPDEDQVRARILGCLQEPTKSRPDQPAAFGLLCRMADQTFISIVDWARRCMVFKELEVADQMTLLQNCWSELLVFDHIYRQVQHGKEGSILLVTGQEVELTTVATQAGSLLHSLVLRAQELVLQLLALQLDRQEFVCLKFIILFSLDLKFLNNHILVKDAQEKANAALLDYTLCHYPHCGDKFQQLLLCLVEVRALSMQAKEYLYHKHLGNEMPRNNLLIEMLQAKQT

Data set [2] deals with Nuclear receptor subfamily 5 group A member 2 (Homo sapiens, UniProt O00482). In kind it is functional, cell-based.
Nuclear receptor subfamily 5 group A member 2, sequence (O00482 whole entry): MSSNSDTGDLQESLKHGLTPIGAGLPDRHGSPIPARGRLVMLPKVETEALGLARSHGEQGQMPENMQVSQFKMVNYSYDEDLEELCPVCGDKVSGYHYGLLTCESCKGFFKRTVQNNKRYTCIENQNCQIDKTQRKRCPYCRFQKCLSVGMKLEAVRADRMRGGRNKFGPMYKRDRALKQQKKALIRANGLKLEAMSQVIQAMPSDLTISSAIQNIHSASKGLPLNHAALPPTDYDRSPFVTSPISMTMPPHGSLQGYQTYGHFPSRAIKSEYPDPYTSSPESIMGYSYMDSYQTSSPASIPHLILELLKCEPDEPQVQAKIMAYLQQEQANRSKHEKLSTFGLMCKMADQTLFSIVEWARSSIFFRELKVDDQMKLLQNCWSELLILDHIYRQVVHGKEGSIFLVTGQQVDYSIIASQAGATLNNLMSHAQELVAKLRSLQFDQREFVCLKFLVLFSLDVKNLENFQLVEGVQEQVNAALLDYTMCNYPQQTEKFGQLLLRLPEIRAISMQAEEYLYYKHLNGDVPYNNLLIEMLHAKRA
Data set [3] can be described thus: nonselective StAR promoter luciferase inhibitors – cell-based, luminescence, luciferase reporter, counter-screen for LRH-1 inverse agonist project, dose response (AID 651969). In kind it is functional.
The target of data set [4] is T1, Corticotropin-releasing factor receptor 2/Corticotropin-releasing factor-binding protein (Homo sapiens, UniProt P24387+Q13324).
T1 sequence (Q13324 whole entry): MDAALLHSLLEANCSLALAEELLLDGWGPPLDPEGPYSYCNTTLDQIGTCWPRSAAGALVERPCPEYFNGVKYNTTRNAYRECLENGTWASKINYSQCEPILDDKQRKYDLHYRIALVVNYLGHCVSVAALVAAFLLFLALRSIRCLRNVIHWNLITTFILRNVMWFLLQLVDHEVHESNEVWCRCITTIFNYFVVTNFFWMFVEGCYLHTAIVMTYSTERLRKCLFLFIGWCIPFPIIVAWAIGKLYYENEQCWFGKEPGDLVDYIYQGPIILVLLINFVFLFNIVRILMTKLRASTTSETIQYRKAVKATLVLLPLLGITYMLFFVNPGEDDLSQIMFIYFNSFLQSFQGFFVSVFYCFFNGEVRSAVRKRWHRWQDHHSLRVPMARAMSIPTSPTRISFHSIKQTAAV
T1 sequence (P24387 whole entry): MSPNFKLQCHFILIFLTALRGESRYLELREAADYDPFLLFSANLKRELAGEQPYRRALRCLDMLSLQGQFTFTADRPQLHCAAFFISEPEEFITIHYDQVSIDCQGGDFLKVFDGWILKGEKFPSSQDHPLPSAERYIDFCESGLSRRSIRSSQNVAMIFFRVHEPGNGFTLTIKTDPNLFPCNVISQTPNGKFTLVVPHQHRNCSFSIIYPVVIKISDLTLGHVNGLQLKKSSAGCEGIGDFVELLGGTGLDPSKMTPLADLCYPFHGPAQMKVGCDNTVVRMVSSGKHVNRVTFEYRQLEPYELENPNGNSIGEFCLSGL
Put plainly: activators of CRF receptor 2 with binding protein – uHTS hits, confirmation (AID 602473). In kind it is functional. The settings on record: read-out: EC50_Mean.

Data set [5] addresses T1, Corticotropin-releasing factor receptor 2/Corticotropin-releasing factor-binding protein. The data set can be described thus: Dose Response confirmation of uHTS hits for small molecule antagonists of the CRF-binding protein and CRF-R2 receptor complex. Type of data set: functional. The settings on record: read-out: IC50_Mean.
Data set [6] in a line: blockers of CRF-binding protein–CRF-R2 complex – cell-based, uHTS hits, 384-well, dose response (AID 651639). In kind it is functional, Homo sapiens. The settings on record: read-out: IC50_Mean.
Data set [7] deals with Glyceraldehyde-3-phosphate dehydrogenase (Homo sapiens, UniProt P04406).
Glyceraldehyde-3-phosphate dehydrogenase, sequence (P04406 whole entry): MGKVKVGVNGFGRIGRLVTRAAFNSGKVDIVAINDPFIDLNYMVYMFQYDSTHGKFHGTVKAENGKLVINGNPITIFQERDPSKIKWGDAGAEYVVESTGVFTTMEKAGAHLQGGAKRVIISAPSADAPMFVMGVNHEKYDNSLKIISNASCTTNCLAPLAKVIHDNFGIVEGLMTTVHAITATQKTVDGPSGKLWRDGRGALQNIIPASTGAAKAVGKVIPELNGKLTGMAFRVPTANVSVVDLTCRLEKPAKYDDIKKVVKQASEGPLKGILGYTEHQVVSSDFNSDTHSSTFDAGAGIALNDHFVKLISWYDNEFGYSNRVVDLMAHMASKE
Data set [8] concerns the target T2, Alkaline phosphatase, tissue-nonspecific isozyme (Homo sapiens, UniProt P05186).
T2 sequence (P05186 whole entry): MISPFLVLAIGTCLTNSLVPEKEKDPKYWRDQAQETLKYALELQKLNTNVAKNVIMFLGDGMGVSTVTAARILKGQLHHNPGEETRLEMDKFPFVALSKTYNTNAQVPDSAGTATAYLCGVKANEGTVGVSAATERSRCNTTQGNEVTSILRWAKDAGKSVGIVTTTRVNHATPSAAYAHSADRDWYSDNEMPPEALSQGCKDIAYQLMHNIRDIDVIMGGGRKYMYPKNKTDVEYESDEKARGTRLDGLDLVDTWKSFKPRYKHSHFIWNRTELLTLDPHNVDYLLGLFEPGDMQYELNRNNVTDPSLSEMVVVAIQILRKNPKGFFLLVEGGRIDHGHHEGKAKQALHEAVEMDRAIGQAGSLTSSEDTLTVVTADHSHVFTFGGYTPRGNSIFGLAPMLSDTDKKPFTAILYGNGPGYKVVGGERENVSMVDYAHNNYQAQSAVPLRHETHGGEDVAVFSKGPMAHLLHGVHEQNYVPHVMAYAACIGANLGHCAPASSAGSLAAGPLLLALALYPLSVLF
The data set can be described thus: potency against alkaline phosphatase TNAP – biochemical, luminescent, dose response, SAR follow-up (AID 1056).

Data set [9] addresses T3, Coagulation factor XII (Homo sapiens, UniProt P00748).
T3 sequence (P00748 whole entry): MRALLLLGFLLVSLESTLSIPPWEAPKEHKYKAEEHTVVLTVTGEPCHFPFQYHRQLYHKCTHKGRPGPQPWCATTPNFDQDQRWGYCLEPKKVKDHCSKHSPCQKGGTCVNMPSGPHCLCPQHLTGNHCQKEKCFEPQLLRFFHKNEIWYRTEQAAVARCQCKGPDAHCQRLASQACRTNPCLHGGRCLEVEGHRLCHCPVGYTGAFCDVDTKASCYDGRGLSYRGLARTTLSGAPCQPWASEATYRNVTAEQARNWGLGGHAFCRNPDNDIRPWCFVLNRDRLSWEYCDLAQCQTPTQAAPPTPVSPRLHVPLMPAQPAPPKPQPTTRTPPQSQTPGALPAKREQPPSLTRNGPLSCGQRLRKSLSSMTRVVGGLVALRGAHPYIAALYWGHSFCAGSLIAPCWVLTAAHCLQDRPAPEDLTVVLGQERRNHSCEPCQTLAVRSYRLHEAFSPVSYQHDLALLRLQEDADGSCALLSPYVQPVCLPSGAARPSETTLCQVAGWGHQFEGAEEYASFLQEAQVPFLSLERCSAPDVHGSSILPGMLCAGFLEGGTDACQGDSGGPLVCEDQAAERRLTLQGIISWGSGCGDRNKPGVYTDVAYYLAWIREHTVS
Type of data set: functional.

The target of data set [10] is Eukaryotic translation initiation factor 4E (Mus musculus, UniProt P63073). Put plainly: blockers of eIF4G binding by eIF4E – biochemical, TR-FRET, dose response (AID 855).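 Note: potency for disrupting eIF4E binding to eIF4GI seen as loss of FRET.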 In kind it is functional. In general terms: Time-resolved FRET reads energy transfer from a long-lived donor to a nearby acceptor.
Eukaryotic translation initiation factor 4E, sequence (P63073 whole entry): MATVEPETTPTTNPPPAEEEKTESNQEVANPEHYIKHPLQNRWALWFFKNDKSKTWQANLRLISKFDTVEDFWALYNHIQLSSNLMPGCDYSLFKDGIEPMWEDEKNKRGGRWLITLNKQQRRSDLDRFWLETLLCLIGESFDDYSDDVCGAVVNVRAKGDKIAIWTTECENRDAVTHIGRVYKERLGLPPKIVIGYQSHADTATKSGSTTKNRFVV
Data set [11] deals with Melanocortin receptor 4 (Homo sapiens, UniProt P32245). Put plainly: inhibitors of MC4R cAMP signaling – cell-based, TR-FRET, biased antagonists, dose response (AID 602298).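 Note: antagonist potency against agonist-stimulated cAMP production.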 In kind it is functional.
Melanocortin receptor 4, sequence (P32245 whole entry): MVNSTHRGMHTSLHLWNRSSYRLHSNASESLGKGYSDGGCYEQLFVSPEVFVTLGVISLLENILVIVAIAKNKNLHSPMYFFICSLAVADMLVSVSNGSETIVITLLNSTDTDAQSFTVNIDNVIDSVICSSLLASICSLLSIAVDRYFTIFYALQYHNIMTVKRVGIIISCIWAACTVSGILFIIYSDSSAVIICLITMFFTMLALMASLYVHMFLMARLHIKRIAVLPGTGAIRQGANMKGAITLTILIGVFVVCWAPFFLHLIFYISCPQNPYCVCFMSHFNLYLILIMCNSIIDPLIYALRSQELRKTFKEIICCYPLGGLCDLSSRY
In data set [12] the target is T4, RNA-binding protein pos-1 (Caenorhabditis elegans, UniProt G5EF15).
T4 sequence (G5EF15 whole entry): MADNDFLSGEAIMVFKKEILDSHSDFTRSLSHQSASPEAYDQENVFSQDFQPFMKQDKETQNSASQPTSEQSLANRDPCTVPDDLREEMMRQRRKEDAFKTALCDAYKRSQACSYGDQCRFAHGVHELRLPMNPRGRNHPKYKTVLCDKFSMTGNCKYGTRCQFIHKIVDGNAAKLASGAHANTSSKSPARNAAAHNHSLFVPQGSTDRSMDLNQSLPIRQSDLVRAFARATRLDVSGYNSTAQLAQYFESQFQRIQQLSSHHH
Put plainly: disruptors of C. elegans POS-1 RNA interaction – biochemical, fluorescence polarization, dose response (AID 1964).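 Note: purified POS-1 fused to maltose binding protein made in E. coli; potency of compounds blocking POS-1 binding to fluorescent RNA.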

The target in data set [13] is T5, Zinc finger protein mex-5 (Caenorhabditis elegans, UniProt Q9XUB2).
T5 sequence (Q9XUB2 whole entry): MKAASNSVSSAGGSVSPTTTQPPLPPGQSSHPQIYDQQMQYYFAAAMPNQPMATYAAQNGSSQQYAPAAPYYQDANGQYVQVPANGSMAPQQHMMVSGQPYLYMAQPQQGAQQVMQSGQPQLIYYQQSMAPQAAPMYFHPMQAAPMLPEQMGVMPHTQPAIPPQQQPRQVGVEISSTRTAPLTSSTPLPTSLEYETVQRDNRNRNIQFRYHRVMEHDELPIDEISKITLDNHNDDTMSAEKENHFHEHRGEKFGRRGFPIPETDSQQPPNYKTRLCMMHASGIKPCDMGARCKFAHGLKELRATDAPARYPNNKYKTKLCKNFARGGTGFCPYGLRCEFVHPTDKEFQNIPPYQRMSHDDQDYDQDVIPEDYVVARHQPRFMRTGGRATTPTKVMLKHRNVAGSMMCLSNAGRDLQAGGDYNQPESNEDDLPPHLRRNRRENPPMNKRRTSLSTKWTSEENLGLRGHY
The data set can be described thus: potency of MEX-5 RNA-binding blockers – biochemical, C. elegans, fluorescence polarization, dose response (AID 1960).

Data set [14] is described as follows: cAMP pathway inhibition in counterscreen cell line – TR-FRET cAMP detection, counter-screen for MC4R biased antagonist project, dose response (AID 602305).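 Note: U2OS cells stimulated with forskolin near its EC80 as the cAMP inducer; potency is for inhibition of forskolin-stimulated cAMP signaling.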 Type of data set: functional, cell-based.
Data set [15] can be described thus: Vero cell cytotoxicity, cytotoxicity control for M. tuberculosis inhibitor project, purified and synthesized samples, set 3 (AID 504684). The settings on record: […]. Type of data set: functional.
Data set [16] is described as follows: A Cell Based Secondary Assay to Explore Cytotoxicity in THP-1 Cells of Compounds that Modulate Mycobacterium tuberculosis in Media Containing Glycerol versus Media without Glycerol (2). Type of data set: functional.
The nature of data set [17]: loss of viability in HepG2 cells – cell-based, CellTiter-Glo, cherry-picked, cytotoxicity control for Shn3 inhibitor project, dose response (AID 624134). Type of data set: functional.
Data set [18] in a line: reduction of Shn3 3'UTR-driven luciferase in osteoblasts – cell-based, Clone20 osteoblasts, firefly luciferase, cherry-picked, dose response (AID 624132).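 Note: firefly luciferase luminescence from reporter carrying the Shn3 3'UTR in osteoblasts.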 In kind it is functional.
A short description of data set [19]: non-specific 3'UTR reporter inhibition in Clone20-Shn3RL – cell-based, Renilla luciferase, cherry-picked, counter-screen for Shn3 inhibitor project, dose response (AID 624133). Type of data set: functional.
For data set [20], the target named is Heat shock protein HSP 90-alpha (Homo sapiens, UniProt P07900). Type of data set: functional, organism-based.
Data set [21] has as its target Photoreceptor-specific nuclear receptor (Homo sapiens, UniProt Q9Y5X4). In kind it is functional, cell-based.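 Note: CHO-S cells with Gal4-NCOR and VP16-NR2E3 two-hybrid luciferase reporter.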
Data set [22] concerns the target Cytochrome P450 3A4 (Homo sapiens, UniProt P08684).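 Note: CYP3A4 tested as one member of a cytochrome P450 panel screen.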

Activity calls are given as the source filed them.

Cytochrome P450 3A4, sequence (P08684 whole entry): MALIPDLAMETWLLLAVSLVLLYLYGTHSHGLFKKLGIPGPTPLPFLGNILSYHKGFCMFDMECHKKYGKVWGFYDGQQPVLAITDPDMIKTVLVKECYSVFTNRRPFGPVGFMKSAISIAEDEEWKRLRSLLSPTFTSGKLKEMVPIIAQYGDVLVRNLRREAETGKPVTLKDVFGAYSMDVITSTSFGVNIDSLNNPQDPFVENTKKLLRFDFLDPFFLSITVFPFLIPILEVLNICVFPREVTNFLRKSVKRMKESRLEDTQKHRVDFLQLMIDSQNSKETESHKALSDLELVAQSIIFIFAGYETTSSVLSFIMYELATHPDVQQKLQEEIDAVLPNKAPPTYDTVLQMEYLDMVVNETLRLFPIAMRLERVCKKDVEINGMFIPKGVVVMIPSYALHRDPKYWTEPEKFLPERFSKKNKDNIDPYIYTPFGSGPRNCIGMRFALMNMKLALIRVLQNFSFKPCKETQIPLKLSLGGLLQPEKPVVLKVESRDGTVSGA
Photoreceptor-specific nuclear receptor, sequence (Q9Y5X4 whole entry, the tested form may be a part): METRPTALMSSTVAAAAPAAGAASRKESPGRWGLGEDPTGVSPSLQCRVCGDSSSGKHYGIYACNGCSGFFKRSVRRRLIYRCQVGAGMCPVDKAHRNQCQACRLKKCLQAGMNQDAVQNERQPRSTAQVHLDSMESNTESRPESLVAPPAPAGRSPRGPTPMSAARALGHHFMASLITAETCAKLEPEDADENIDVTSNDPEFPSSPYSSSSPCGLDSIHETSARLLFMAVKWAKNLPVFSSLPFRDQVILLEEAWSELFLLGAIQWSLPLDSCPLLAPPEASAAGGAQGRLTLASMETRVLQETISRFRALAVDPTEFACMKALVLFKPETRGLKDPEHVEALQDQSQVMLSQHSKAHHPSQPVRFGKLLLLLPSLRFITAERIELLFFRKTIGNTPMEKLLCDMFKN

For the molecule `Cc1ccn2c(=O)nc(SCC(=O)Nc3ccc4c(c3)OCCO4)nc2c1`, the IC50 in [1] is 3.98 µM (active); in data set [2], 35.9 µM (inactive); in data set [3], 35.9 µM (inactive).
`CCOC(=O)/C(C#N)=C\c1ccc2c(c1)OCO2`: the EC50 in data set [4] is > 53 µM (inactive). The IC50 in data set [5] was 2.02 µM (active); in data set [6], > 20 µM (inactive).
As for `Cc1ccc(S(=O)(=O)Nc2nc3ccccc3nc2Cl)cc1`, the IC50 in data set [7] is > 100 µM (not active); in [8], > 100 µM (inactive).
Turning to `COc1ccc(C2=CSC3=NCCN23)cc1F`, the IC50 in data set [9] was > 50 µM (inactive); in data set [10], > 64 µM (inactive).
For the molecule `CCOC(=O)CSc1nc2ccc(Nc3nc(N4CCOCC4)nc(N4CCOCC4)n3)cc2s1`, the IC50 in data set [11] and in data set [14] was > 64.6 µM (inactive) throughout. Further, the EC50 in data set [12] and in data set [13] was > 300 µM (not active) in each case.
As for `CCCOc1ccc(C(=O)NC(C)C(=O)O)cc1` (stereo not given), in data set [9], the IC50 was > 50 µM (inactive).
With `O=C1c2c(Cl)c(Cl)c(Cl)c(Cl)c2C(=O)N1c1nnc(CCc2ccccc2)[nH]1`, the IC50 was > 100 µM (not active) in data set [7] and > 100 µM (inactive) in data set [8].
`Cc1cc(Br)ccc1NC(=O)CSc1nnc(CN2CCOCC2)n1C`: the IC50 in data set [1] was 24.7 µM (inactive); in [2], 40.2 µM (inactive); in data set [3], 35.9 µM (inactive).
`COc1ccc(S(=O)(=O)Nc2ccncc2)cc1OC`: the IC50 in data set [7] was > 100 µM (not active); in data set [8], > 100 µM (inactive).
Turning to `NS(=O)(=O)c1ccc(NC(=O)COC(=O)c2ncc(Cl)c(Cl)c2Cl)cc1`, the IC50 in [11] and in [14] was > 64.6 µM (inactive) throughout.
Take `COc1ccccc1Nc1nc(N)nc(CSC(=S)N2CC(C)CC(C)C2)n1` (stereo not given): in data set [4], the EC50 was > 53 µM (inactive). Also, the IC50 in [5] is 32 µM (active); in data set [6], > 20 µM (inactive).
Broadly, the CC50 is the concentration giving 50% cytotoxicity. For the molecule `CCn1c2ccccc2c2cc(NC(=O)CSc3nc(C)cc(=O)[nH]3)ccc21`, the CC50 was 56 µM (active) in data set [15] and 41.1 µM (active) in [16].
Consider `CCC(C)NC(=O)C1CN(S(=O)(=O)c2ccccc2)CCN1S(=O)(=O)c1ccccc1` (stereo not given), for which the IC50 in [9] is > 50 µM (inactive).
As usually defined, the AC50 is the concentration at which the activity in the assay is half-maximal. Turning to `O=C(OC12CC3CC(CC(C3)C1)C2)c1ccc(NCc2cc(O)ccc2O)cc1`, the AC50 in [17] was 53 µM (active); in [18], 2.33 µM (active); in data set [19] it was 3.99 µM (active); in [20], 5.15 µM (active). In addition, the IC50 in [21] was 4.09 µM (active).
Consider `Cc1sc(NC(=O)C(C)C)c(C(=O)Nc2ccccc2)c1C`, for which the IC50 in [1] is 3.85 µM (active); in data set [2], 11.6 µM (inactive); in data set [3], 35.9 µM (inactive). In addition, the AC50 result in [22] is reported as “inconclusive”.
Consider `CN(Cc1ccccc1)c1nc2c(c(=O)[nH]c(=O)n2C)n1CCCSc1ncccn1`, for which the IC50 in data set [9] is > 50 µM (inactive).
